Results taken from US8785452B2, “Anti-infective compounds” (priority 2008, dated 2014).
Where two headings read alike, the source gives them in different places.

What was measured:
[1] = tested on: M. tuberculosis H37Rv-GFP; assay: microbe, parasite or virus in culture; type: cell-based, Mycobacterium tuberculosis; conditions: Mycobacterium tuberculosis, H37RV, Macrophage; for inhibition at 0.2 µM: read-out: QIM Confirm % Inhibition 0.2 uM; for inhibition at 2 µM: read-out: QIM Confirm % Inhibition 2 uM
[2] = tested on: M. tuberculosis H37Rv-GFP; assay: microbe, parasite or virus in culture; type: cell-based; conditions: Mycobacterium tuberculosis; for inhibition at 0.2 µM: read-out: QUM Confirm % Inhibition 0.2 uM; for inhibition at 2 µM: read-out: QUM Confirm % Inhibition 2 uM; for inhibition at 20 µM: read-out: QUM Confirm % Inhibition 20 uM
Raw264.7 cells = assay: Cell number (CellNb) from image analysis of the phenotypic cell-based assay
[3] = read-out: Primary QIM % Inhibition
[4] = read-out: QIM Confirm % Inhibition 20 uM
[5] = confirmation, 0.2 uM, intracellular
[6] = confirmation, 2 uM, intracellular
[7] = confirmation, 20 uM, read-out: QIM Confirm % Inhibition 20 uM
[8] = primary screen, 20 μM, read-out: Primary QIM % Inhibition

| Compound | inhibition at 20 µM [1, 3] [%] | inhibition at 0.2 µM [1] [%] | inhibition at 2 µM [1] [%] | inhibition at 20 µM [1, 4] [%] | inhibition at 0.2 µM [2] [%] | inhibition at 2 µM [2] [%] | inhibition at 20 µM [2] [%] | Primary QIM CellNb (Raw264.7 cells) | QIM Confirm CellNb 0.2 uM (Raw264.7 cells) | QIM Confirm CellNb 2 uM (Raw264.7 cells) | QIM Confirm CellNb 20 uM (Raw264.7 cells) | inhibition at 0.2 µM [1, 5] [%] | inhibition at 2 µM [1, 6] [%] | inhibition at 20 µM [1, 7] [%] | inhibition at 20 µM [1, 8] [%] | QIM Confirm CellNb 0.2 uM (Raw264.7 cells; confirmation, 0.2 uM) | QIM Confirm CellNb 2 uM (Raw264.7 cells; confirmation, 2 uM) | QIM Confirm CellNb 20 uM (Raw264.7 cells; confirmation, 20 uM) | Primary QIM CellNb (Raw264.7 cells; primary screen, 20 μM) |
| --- | --- | --- | --- | --- | --- | --- | --- | --- | --- | --- | --- | --- | --- | --- | --- | --- | --- | --- | --- |
| N#CC(C#N)=NNc1ccc(I)cc1 [IPK 000 007 31] | -28.2 | 45.7 | 14.7 | 25.8 | 41 | 33 | 80.8 | 61.3 | 393.1 | 308.8 | 166.5 | – | – | – | – | – | – | – | – |
| C/C(=N\NOCc1cc([N+](=O)[O-])cc([N+](=O)[O-])c1)c1ccccc1 [IPK 000 035 56] | – | – | – | – | 41.5 | 39.6 | 65.6 | – | – | – | – | 9.1 | 18.8 | 89 | 83.3 | 247.1 | 313.1 | 524.3 | 266.0 |
| Clc1ccc(Nc2nc3nonc3nc2Nc2ccc(Cl)cc2)cc1 [IPK 000 003 90] | – | – | – | – | 44 | 68.8 | 72.7 | – | – | – | – | 2.2 | 43.2 | 67.9 | 15.7 | 142.3 | 75.6 | 133.4 | 78.0 |
| O=C(N/N=C/c1ccccc1F)c1ccncc1 [IPK 000 013 71] | – | – | – | – | 51.6 | 92.2 | 68.4 | – | – | – | – | 86.3 | 105 | 97.5 | 103 | 476.5 | 544.3 | 377.4 | 358.8 |
| C/C(=N\NC(N)=S)c1ccc(Cl)cc1 [IPK 000 002 17] | 26.6 | 54.5 | 70.4 | 24.5 | 56.9 | 67.4 | 49.7 | 235.5 | 472.3 | 541.6 | 249.8 | – | – | – | – | – | – | – | – |
| O=C(NCCOc1ccccc1Cl)c1cc([N+](=O)[O-])cc([N+](=O)[O-])c1 [IPK 000 027 72] | – | – | – | – | 35.1 | 97.6 | 101 | – | – | – | – | 29.3 | 77.7 | 100 | 82.6 | 267.0 | 440.4 | 238.1 | 333.3 |
| CN1CCN(c2nc(Nc3ccc(OC(F)(F)F)cc3)nc(OCC(F)(F)F)n2)CC1 [IPK 000 008 12] | – | – | – | – | 36.5 | 39.7 | 48 | – | – | – | – | 2.7 | 18.9 | 78.4 | 64.1 | 292.9 | 225.6 | 248.0 | 396.3 |
| O=C(N/N=C\c1ccc(Cl)s1)c1ccncc1 [IPK 000 009 42] | – | – | – | – | 28.8 | 50.3 | 100 | – | – | – | – | 21.3 | 92.3 | 97.9 | 93.1 | 326.3 | 473.5 | 255.0 | 376.5 |
| O=C(Nc1ccc(Oc2ccccc2)cc1)C1CCCO1 (stereo not drawn) [IPK 000 033 16] | – | – | – | – | 34.1 | 42 | 61.3 | – | – | – | – | 5 | 69.6 | 92.3 | 81.9 | 296.1 | 573.9 | 303.9 | 283.0 |
| CCCSc1nnc(-c2ccc(Cl)cc2Cl)o1 [IPK 000 024 43] | – | – | – | – | 34.7 | 40.1 | 67.7 | – | – | – | – | 50.4 | 58.3 | 59.1 | 5.8 | 352.1 | 349.0 | 205.0 | 203.8 |
| O=C(N/N=C/c1cc(Br)c(Br)o1)c1ccncc1 [IPK 000 009 41] | – | – | – | – | 28.3 | 59.6 | 99.4 | – | – | – | – | 19.6 | 92.8 | 99.6 | 92.9 | 257.8 | 488.3 | 446.5 | 345.8 |
| C/C(=N/NC(=O)c1ccncc1)c1cccs1 [IPK 000 003 01] | – | – | – | – | 46.4 | 82.8 | 43 | – | – | – | – | 4.7 | 77.1 | 40.4 | 88.2 | 232.6 | 457.3 | 248.3 | 373.5 |
| Cc1nn(-c2ccccc2)c(Cl)c1/C=N/NC(=O)c1ccccn1 [IPK 000 001 90] | – | – | – | – | 34.6 | 29.4 | 42.3 | – | – | – | – | 12.7 | 13.2 | 96.5 | 91.9 | 190.0 | 173.6 | 317.6 | 435.5 |
| O=C(N/N=C/C=C/c1ccccc1)c1ccncc1 [IPK 000 013 68] | – | – | – | – | 50.4 | 77.1 | 77.6 | – | – | – | – | 50.9 | 102 | 67.2 | 65 | 400.1 | 528.8 | 438.8 | 276.3 |
| Fc1ccc(Nc2nc3nonc3nc2Nc2ccc(F)cc2)cc1 [IPK 000 003 91] | – | – | – | – | 46.6 | 41.4 | 76.7 | – | – | – | – | 2.9 | 36.8 | 76.4 | 31.6 | 220.9 | 148.9 | 128.8 | 63.0 |
